Laboratory results from patent US11707440B2 (priority 2017, dated 2023).

Columns and labels:
adult subjects with TRD = settings: US patients
Text: Adverse events were reported by the subject (or, when appropriate, by a caregiver, surrogate, or the subject's legally acceptable representative) for the duration of the study. Adverse events were followed by the investigator. TEAEs of special interest were examined separately.
The verbatim terms used in the eCRF by investigators to identify adverse events were coded using the MedDRA. All reported adverse events with onset during the double-blind induction phase (i.e., TEAEs, and adverse events that have worsened since baseline) were included in the analysis. For each adverse event, the percentage of subjects who experience at least 1 occurrence of the given event was summarized by treatment group. Adverse events occurring during the follow-up phase were summarized separately.
TEAEs of special interest were examined separately. AEs of special interest were listed in the SAP. Subjects who died, who discontinued treatment due to an adverse event, or who experienced a severe or a serious adverse event were summarized separately.
An adverse event is any untoward medical occurrence in a clinical study subject administered a medicinal (investigational or non-investigational) product. […]

[1] = test system: subjects with MDD at imminent risk for suicide; test: MADRS suicide item, […]2001; type: in vivo, human; settings: 84 mg, ITT Analysis Set
Text: • a. Changes from baseline to Day 2 and Day 25 for the MADRS total score • b. Changes from baseline to Day 1 4-hours postdose, Day 2 and Day 25 for the MADRS Suicide Item • c. Changes from baseline to Day 1 4-hours postdose, Day 2, and Day 25 for the clinical global judgment of suicide risk from the Suicide Ideation and Behavior Assessment Tool (SIBAT) • d. Sustained response (Onset of Clinical Response) defined as at least 50% reduction from baseline in MADRS total score with onset on Day 1 that is maintained through the end of the double-blind phase (Day 25) • e. Changes from baseline to Day 1 4-hours postdose, Day 2, and Day 25 for the Beck Scale for Suicidal Ideation (BSS) • f. Changes from baseline to Day 1 4-hours postdose and Day 25 for the Beck Hopelessness Scale
Results of the change from baseline over time for the suicide item from the MADRS assessment can be found in Attachment 1.

subjects with TRD = type: in vivo, human; settings: among the 76 subjects who discontinued intranasal esketamine
Text: The efficacy and safety analyses are based on the full (IND) analysis set and the full (OP/MA) analysis set. The full (IND) analysis set is defined as all subjects who receive at least 1 dose of intranasal study medication or 1 dose of oral antidepressant in the open-label IND phase (for direct-entry and transferred-entry non-responder subjects). The full (OP/MA) analysis is defined as all subjects who receive at least 1 dose of intranasal study medication or 1 dose of oral antidepressant in the OP/MA phase. Safety variables include cognition function over time, treatment-emergent adverse events (TEAEs), including TEAEs of special interest, vital signs over time, Clinician-Administered Dissociative Symptom Scale (CADDS) over time, and Modified Observer's Assessment of Alertness/Sedation (MOAA/S) score≤3. Efficacy variables include the MADRS which consists of 10 items that cover all the core depressive symptoms: each item is scored from 0 (symptom is not present or is normal) to 6 (severe or continuous presence of the symptom). A total score (0 to 60) is calculated by summing the scores of all 10 items. A higher score represents a more severe condition.
Overall, 90.1% of subjects experienced at least one TEAE in the IND and OP/MA phases.

With `CN[C@]1(c2ccccc2Cl)CCCCC1=O` [esketamine, (S)-2-(2-chlorophenyl)-2-(methylamino)cyclohexanone] the “Patients who withdrew from nasal spray drug” value (adult subjects with TRD) was 3 patients, the “MADRS Suicide Item (Suicidal Thoughts), Change from Baseline, Med” value ([1]; Day 1(DB): 4H LOCF) was −3.0 and the “MADRS Suicide Item (Suicidal Thoughts), Change from Baseline, Med” value ([1]; Day 1(DB): 4H) was −3.0. The “MADRS Suicide Item (Suicidal Thoughts), Change from Baseline, Med” value ([1]; Day 2(DB) LOCF) was −3.0, the “MADRS Suicide Item (Suicidal Thoughts), Change from Baseline, Med” value ([1]; Day 2(DB)) was −3.0 and the “MADRS Suicide Item (Suicidal Thoughts), Change from Baseline, Med” value ([1]; Day 3(DB) LOCF) was −4.0. For the same compound, the “MADRS Suicide Item (Suicidal Thoughts), Change from Baseline, Med” value ([1]; Day 3(DB)) was −4.0, the “MADRS Suicide Item (Suicidal Thoughts), Change from Baseline, Med” value ([1]; Day 4(DB) LOCF) was −4.0 and the “MADRS Suicide Item (Suicidal Thoughts), Change from Baseline, Med” value ([1]; Day 4(DB)) was −4.0. For the same compound, the “MADRS Suicide Item (Suicidal Thoughts), Change from Baseline, Med” value ([1]; Day 5(DB) LOCF) was −4.0, the “MADRS Suicide Item (Suicidal Thoughts), Change from Baseline, Med” value ([1]; Day 5(DB)) was −4.0 and the “MADRS Suicide Item (Suicidal Thoughts), Change from Baseline, Med” value ([1]; Day 8(DB) LOCF) was −4.0. For the same compound, the “MADRS Suicide Item (Suicidal Thoughts), Change from Baseline, Med” value ([1]; Day 8(DB)) was −4.0, the “MADRS Suicide Item (Suicidal Thoughts), Change from Baseline, Med” value ([1]; Day 11(DB) LOCF) was −4.0 and the “MADRS Suicide Item (Suicidal Thoughts), Change from Baseline, Med” value ([1]; Day 11(DB)) was −4.0. The “MADRS Suicide Item (Suicidal Thoughts), Change from Baseline, Med” value ([1]; Day 15(DB) LOCF) was −4.0, the “MADRS Suicide Item (Suicidal Thoughts), Change from Baseline, Med” value ([1]; Day 15(DB)) was −4.0 and the “MADRS Suicide Item (Suicidal Thoughts), Change from Baseline, Med” value ([1]; Day 18(DB) LOCF) was −4.0. For the same compound, the “MADRS Suicide Item (Suicidal Thoughts), Change from Baseline, Med” value ([1]; Day 18(DB)) was −4.0, the “MADRS Suicide Item (Suicidal Thoughts), Change from Baseline, Med” value ([1]; Day 22(DB) LOCF) was −4.0 and the “MADRS Suicide Item (Suicidal Thoughts), Change from Baseline, Med” value ([1]; Day 22(DB)) was −4.0. The “MADRS Suicide Item (Suicidal Thoughts), Change from Baseline, Med” value ([1]; Day 25(DB): 4H) was −4.5, the “MADRS Suicide Item (Suicidal Thoughts), Change from Baseline, Med” value ([1]; Day 25(DB): Predose LOCF) was −4.0 and the “MADRS Suicide Item (Suicidal Thoughts), Change from Baseline, Med” value ([1]; Day 25(DB): Predose) was −4.5. The “MADRS Suicide Item (Suicidal Thoughts), Change from Baseline, Med” value ([1]; Day 32(FU) LOCF) was −4.0, the “MADRS Suicide Item (Suicidal Thoughts), Change from Baseline, Med” value ([1]; Day 32(FU)) was −4.0 and the “MADRS Suicide Item (Suicidal Thoughts), Change from Baseline, Med” value ([1]; Day 39(FU) LOCF) was −5.0. The “MADRS Suicide Item (Suicidal Thoughts), Change from Baseline, Med” value ([1]; Day 39(FU)) was −5.0, the “MADRS Suicide Item (Suicidal Thoughts), Change from Baseline, Med” value ([1]; Day 46(FU) LOCF) was −4.0 and the “MADRS Suicide Item (Suicidal Thoughts), Change from Baseline, Med” value ([1]; Day 46(FU)) was −4.0. For the same compound, the “MADRS Suicide Item (Suicidal Thoughts), Change from Baseline, Med” value ([1]; Day 53(FU) LOCF) was −4.0, the “MADRS Suicide Item (Suicidal Thoughts), Change from Baseline, Med” value ([1]; Day 53(FU)) was −5.0 and the “MADRS Suicide Item (Suicidal Thoughts), Change from Baseline, Med” value ([1]; Day 67(FU) LOCF) was −4.0. The “MADRS Suicide Item (Suicidal Thoughts), Change from Baseline, Med” value ([1]; Day 67(FU)) was −4.0, the “MADRS Suicide Item (Suicidal Thoughts), Change from Baseline, Med” value ([1]; Day 81(FU)) was −5.0 and the “MADRS Suicide Item (Suicidal Thoughts), Change from Baseline, Med” value ([1]; End Point(DB)) was −4.0. The “MADRS Suicide Item (Suicidal Thoughts), Change from Baseline, Med” value ([1]; End Point(FU)) was −5.0 and the “Subjects with a discontinuation AE considered related (possibly, probably, or very likely) to esketamine” value (subjects with TRD) was 51 subjects.
